Results published in PubChem BioAssay (NCI).
Values joined by “and” are separate entries in the source; they are usually repeats but may differ in a detail not shown here. Equal entries are not always repeated.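 Interpolation was linear, between the two tested concentrations surrounding the appropriate level; five concentrations were tested over 48 hours in 96-well plates. Here, GI50 denotes the concentration required for 50% inhibition of growth. At the TGI there is no net growth.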

Experiments:
Experiment in all cases: growth of human tumour cells (NCI), 48 h
PC-3 prostate = system: PC-3 prostate
NCI-H522 lung = system: NCI-H522 lung
MDA-MB-435 = system: MDA-MB-435
HS 578T breast = system: HS 578T breast
SK-MEL-5 melanoma = system: SK-MEL-5 melanoma
NCI-H460 lung = system: NCI-H460 lung
SR leukemia = system: SR leukemia
SW-620 colon = system: SW-620 colon
NCI-H23 lung = system: NCI-H23 lung
HOP-92 NSCLC = system: HOP-92 NSCLC

NC(N)=N/N=C/c1c(-c2ccc(Cl)c([N+](=O)[O-])c2)nc2sc3ccccc3n12
GI50 (PC-3 prostate): 0.738 µM | TGI (PC-3 prostate): 1.4 µM | GI50 (NCI-H522 lung): 3.66 µM | TGI (NCI-H522 lung): > 50 µM | GI50 (MDA-MB-435): 1.1 µM | TGI (MDA-MB-435): 2.4 µM | GI50 (HS 578T breast): 1.38 µM | TGI (HS 578T breast): 2.91 µM | GI50 (SK-MEL-5 melanoma): 0.952 µM | TGI (SK-MEL-5 melanoma): 1.95 µM

COC(=O)c1sc(=NC(=S)N2CCCCC2)sc1C(=O)OC
TGI (NCI-H460 lung): > 100 µM | TGI (SR leukemia): > 100 µM | TGI (SW-620 colon): > 100 µM | TGI (SK-MEL-5 melanoma): > 100 µM

O=c1[nH]c2ccc([N+](=O)[O-])c(Cl)c2c2ccccc12
TGI (NCI-H522 lung): 11.7 µM | TGI (MDA-MB-435): 7.6 µM | TGI (NCI-H460 lung): 4.47 µM | TGI (SR leukemia): 7.59 µM | TGI (SW-620 colon): 17.9 µM | TGI (NCI-H23 lung): 24.7 µM | TGI (HS 578T breast): > 100 µM | TGI (SK-MEL-5 melanoma): 13 µM

N#CC(NC(=O)CCl)=C(Cl)Cl
GI50 (PC-3 prostate): 1.69 µM | TGI (PC-3 prostate): 4.22 µM | GI50 (NCI-H522 lung): 0.437 µM | TGI (NCI-H522 lung): 1.83 µM | GI50 (MDA-MB-435): 1.94 µM | TGI (MDA-MB-435): 4.03 µM | GI50 (NCI-H460 lung): 2.69 µM | TGI (NCI-H460 lung): 7.47 µM | GI50 (SR leukemia): 0.702 µM | TGI (SR leukemia): 2.68 µM | GI50 (SW-620 colon): 1.44 µM | TGI (SW-620 colon): 3.49 µM | GI50 (NCI-H23 lung): 1.7 µM | TGI (NCI-H23 lung): 3.56 µM | GI50 (HS 578T breast): 3.46 µM | TGI (HS 578T breast): 17.1 µM | GI50 (SK-MEL-5 melanoma): 1.57 µM | TGI (SK-MEL-5 melanoma): 3.27 µM

COc1cc2cc3c(c(O)c2c(O)c1-c1c(OC)cc2cc4c(c(O)c2c1O)C(=O)O[C@H](C)C4)C(=O)O[C@H](C)C3
GI50 (PC-3 prostate): 35.8 µM | TGI (PC-3 prostate): > 100 µM | GI50 (NCI-H522 lung): 44.3 µM | TGI (NCI-H522 lung): > 100 µM | GI50 (MDA-MB-435): 17.8 µM | TGI (MDA-MB-435): 33.8 µM | GI50 (NCI-H460 lung): 16.8 µM | TGI (NCI-H460 lung): 56.8 µM | GI50 (SR leukemia): 70.6 µM | TGI (SR leukemia): > 100 µM | GI50 (HOP-92 NSCLC): 31.3 µM | TGI (HOP-92 NSCLC): 74.3 µM | GI50 (SW-620 colon): 77.1 µM | TGI (SW-620 colon): > 100 µM | GI50 (NCI-H23 lung): 32.1 µM | TGI (NCI-H23 lung): > 100 µM | GI50 (SK-MEL-5 melanoma): 21.8 µM | TGI (SK-MEL-5 melanoma): 39.1 µM

O=C(N/N=C/c1ccc(F)cc1)c1ccc(C(F)(F)F)nc1Nc1cccc(C(F)(F)F)c1
GI50 (NCI-H522 lung): 1.61 µM | TGI (NCI-H522 lung): 4.54 µM | GI50 (MDA-MB-435): 2.66 µM | TGI (MDA-MB-435): 10 µM | GI50 (NCI-H460 lung): 1.29 µM | TGI (NCI-H460 lung): 3.08 µM | GI50 (SR leukemia): 0.426 µM | TGI (SR leukemia): 2.4 µM | GI50 (SW-620 colon): 0.959 µM | TGI (SW-620 colon): 8.44 µM | GI50 (NCI-H23 lung): 2.58 µM | TGI (NCI-H23 lung): 11.9 µM | GI50 (HS 578T breast): 1.73 µM | TGI (HS 578T breast): 6.87 µM | GI50 (SK-MEL-5 melanoma): 1.62 µM | TGI (SK-MEL-5 melanoma): 4.48 µM

Nc1ccc(C(=O)/C=C/c2ccccc2O)cc1
TGI (NCI-H522 lung): > 100 µM | TGI (NCI-H460 lung): > 100 µM | TGI (SR leukemia): > 100 µM | TGI (SW-620 colon): > 100 µM | TGI (NCI-H23 lung): > 100 µM | TGI (SK-MEL-5 melanoma): > 100 µM

CN(C)c1ccc(O[Si](Oc2ccc(N(C)C)cc2)(Oc2ccc(N(C)C)cc2)Oc2ccc(N(C)C)cc2)cc1
TGI (NCI-H522 lung): > 100 µM | TGI (SR leukemia): > 100 µM | TGI (HOP-92 NSCLC): > 100 µM | TGI (SW-620 colon): > 100 µM | TGI (NCI-H23 lung): > 100 µM | TGI (SK-MEL-5 melanoma): > 100 µM

CN(C)c1ccc(N=C2C=CC(=C(C#N)C#N)c3ccccc32)cc1
TGI (PC-3 prostate): 10.8 µM | TGI (NCI-H522 lung): 0.305 µM | TGI (MDA-MB-435): 0.191 µM | TGI (NCI-H460 lung): 7.08 µM | TGI (SR leukemia): 48.1 µM | TGI (HOP-92 NSCLC): 1.06 µM | TGI (SW-620 colon): 3.65 µM | TGI (NCI-H23 lung): 4.19 µM | TGI (SK-MEL-5 melanoma): 0.713 µM

CCOc1ccccc1NC(=O)C1=C(C)NC(C)=C(C(=O)Nc2ccccc2OCC)C1c1ccc([N+](=O)[O-])cc1
TGI (NCI-H522 lung): > 100 µM | TGI (NCI-H460 lung): > 100 µM | TGI (SR leukemia): > 100 µM | TGI (HOP-92 NSCLC): > 100 µM | TGI (SW-620 colon): > 100 µM | TGI (NCI-H23 lung): > 100 µM

CCOc1ccc(Nc2nc(-c3c(C)nc4ncccn34)cs2)cc1
GI50 (PC-3 prostate): 0.0185 µM | TGI (PC-3 prostate): 17.5 µM | GI50 (NCI-H522 lung): < 0.01 µM | TGI (NCI-H522 lung): 1.57 µM | GI50 (NCI-H460 lung): 0.0305 µM | TGI (NCI-H460 lung): 12.5 µM | GI50 (SR leukemia): 0.0153 µM | TGI (SR leukemia): 19.7 µM | GI50 (HOP-92 NSCLC): 0.0362 µM | TGI (HOP-92 NSCLC): 13.4 µM | GI50 (SW-620 colon): 0.0218 µM | TGI (SW-620 colon): 16 µM | GI50 (NCI-H23 lung): 0.0623 µM | TGI (NCI-H23 lung): 22.2 µM | GI50 (HS 578T breast): 0.0357 µM | TGI (HS 578T breast): 23.3 µM | GI50 (SK-MEL-5 melanoma): 0.0453 µM | TGI (SK-MEL-5 melanoma): 1.96 µM

C=C(Cn1c2ccccc2c(=O)c2ccccc21)c1ccc(C(=O)Nc2ccccc2N)cc1
GI50 (PC-3 prostate): 0.761 µM | TGI (PC-3 prostate): > 100 µM | GI50 (NCI-H522 lung): 2.72 µM | TGI (NCI-H522 lung): > 100 µM | GI50 (NCI-H460 lung): 4.72 µM | TGI (NCI-H460 lung): > 100 µM | GI50 (SR leukemia): 0.605 µM | TGI (SR leukemia): 2.25 µM | GI50 (HOP-92 NSCLC): 5.87 µM | TGI (HOP-92 NSCLC): > 100 µM | GI50 (SW-620 colon): 6.56 µM | TGI (SW-620 colon): > 100 µM | GI50 (NCI-H23 lung): 45.1 µM | TGI (NCI-H23 lung): > 100 µM | GI50 (HS 578T breast): > 100 µM | TGI (HS 578T breast): > 100 µM | GI50 (SK-MEL-5 melanoma): 4.58 µM | TGI (SK-MEL-5 melanoma): > 100 µM

Nc1nc(=S)[nH]c(C(=O)Nc2nccs2)c1-c1ccccc1
TGI (NCI-H522 lung): > 100 µM | TGI (NCI-H460 lung): > 100 µM | TGI (SR leukemia): > 100 µM | TGI (HOP-92 NSCLC): > 100 µM | TGI (SW-620 colon): > 100 µM | TGI (NCI-H23 lung): > 100 µM | TGI (SK-MEL-5 melanoma): > 100 µM

c1ccc2c3c([nH]c2c1)C1C2CCCCN2C(c2ccncc2)N1CC3 (centres undefined)
TGI (NCI-H522 lung): > 100 µM | TGI (NCI-H460 lung): > 100 µM | TGI (SR leukemia): > 100 µM | TGI (SW-620 colon): > 100 µM | TGI (NCI-H23 lung): > 100 µM | TGI (SK-MEL-5 melanoma): > 100 µM

COc1cc(CCc2ccc(OC(C)=O)cc2)cc(OC)c1OC
TGI (NCI-H522 lung): > 100 µM | TGI (NCI-H460 lung): > 100 µM | TGI (HOP-92 NSCLC): > 100 µM | TGI (SW-620 colon): > 100 µM | TGI (SK-MEL-5 melanoma): > 100 µM

CC(=O)OCC1OC(n2c(=S)n(-c3ccccc3)c(=O)c3cc(Br)cc(Br)c32)C(OC(C)=O)C(OC(C)=O)C1OC(C)=O (centres undefined)
GI50 (NCI-H522 lung): > 100 µM and 28.6 µM | TGI (NCI-H522 lung): > 100 µM and 84.7 µM | TGI (NCI-H460 lung): > 100 µM | GI50 (SR leukemia): > 100 µM | TGI (SR leukemia): > 100 µM | GI50 (HOP-92 NSCLC): 15.3 µM and 46.9 µM | TGI (HOP-92 NSCLC): 63.3 µM and > 100 µM | TGI (SW-620 colon): > 100 µM | GI50 (NCI-H23 lung): 19.1 µM and 72.3 µM | TGI (NCI-H23 lung): 92.1 µM and > 100 µM | TGI (SK-MEL-5 melanoma): > 100 µM

O=C1CCS/C(=N/S(=O)(=O)c2ccc(N3N=C4c5ccccc5CC4C3c3cccs3)cc2)N1Cc1ccccc1 (centres undefined)
GI50 (PC-3 prostate): 22.4 µM | TGI (PC-3 prostate): 55.2 µM | GI50 (NCI-H522 lung): 15.9 µM | TGI (NCI-H522 lung): 40 µM | GI50 (MDA-MB-435): 21.1 µM | TGI (MDA-MB-435): 44.6 µM | GI50 (NCI-H460 lung): > 100 µM | TGI (NCI-H460 lung): > 100 µM | GI50 (HOP-92 NSCLC): 35.9 µM | TGI (HOP-92 NSCLC): 83.7 µM | GI50 (SW-620 colon): 24 µM | TGI (SW-620 colon): 84.6 µM | GI50 (NCI-H23 lung): 16.7 µM | TGI (NCI-H23 lung): 31.8 µM | GI50 (HS 578T breast): 23.5 µM | TGI (HS 578T breast): 67.2 µM | GI50 (SK-MEL-5 melanoma): 14.1 µM | TGI (SK-MEL-5 melanoma): 28.8 µM

NNC(=O)N/N=C1\CN(c2ccc(Cl)cc2Cl)C(=O)C(=O)C1c1nc2ccccc2o1 (centres undefined)
TGI (NCI-H522 lung): > 100 µM | TGI (NCI-H460 lung): > 100 µM | TGI (SR leukemia): > 100 µM | TGI (HOP-92 NSCLC): > 100 µM | TGI (SW-620 colon): > 100 µM | TGI (NCI-H23 lung): > 100 µM | TGI (SK-MEL-5 melanoma): > 100 µM

N/C(=N\C(N)=N\c1nc2ccccc2s1)c1cnccn1
GI50 (PC-3 prostate): 3.78 µM | TGI (PC-3 prostate): > 100 µM | GI50 (NCI-H522 lung): 2.16 µM | TGI (NCI-H522 lung): 6.16 µM | GI50 (NCI-H460 lung): 3.59 µM | TGI (NCI-H460 lung): > 100 µM | GI50 (SR leukemia): 4.32 µM | TGI (SR leukemia): > 100 µM | GI50 (HOP-92 NSCLC): 3.05 µM | TGI (HOP-92 NSCLC): 16.1 µM | GI50 (SW-620 colon): 3.68 µM | TGI (SW-620 colon): > 100 µM | GI50 (NCI-H23 lung): 3 µM | TGI (NCI-H23 lung): 24.8 µM | GI50 (HS 578T breast): 4.7 µM | TGI (HS 578T breast): > 100 µM | GI50 (SK-MEL-5 melanoma): 2.29 µM | TGI (SK-MEL-5 melanoma): 5.89 µM
